Experimental data taken from patent US5998453A, “Oxazolidinone compounds and pharmaceutical preparation containing them” (Schering Aktiengesellschaft, priority 1984, dated 1999).

Test system: weight increase caused by croton oil
Assay: rat ear test according to Tonelli (croton oil), topical anti-inflammatory activity
Assay type: in vivo, Wistar rats
Conditions: 5 hours after treatment

| Structure (SMILES) | ED50 |
| --- | --- |
| COc1ccc(C2CNC(=O)C2)cc1OC1CCOC1 (stereo not drawn) [Compound 5, 4-[4-Methoxy-3-(3-tetrahydrofuryloxy)phenyl]-2-pyrrolidone] | 0.2 mg/kg |
| O=C(O)COc1nn(Cc2ccccc2)c2ccccc12 [Compound 2, Bendazac] | 15 mg/kg |
| CCCC(=O)OC1(C(=O)CO)CCC2C3CCC4=CC(=O)CCC4(C)C3C(O)CC21C (stereo not drawn) [Compound 3, Hydrocortisone 17-butyrate] | 0.5 mg/kg |
| COc1ccc(C2CNC(=O)C2)cc1OC1CCCC1 (stereo not drawn) [Compound 4, 4-(3-Cyclopentyloxy-4-methoxyphenyl)-2-pyrrolidone] | 0.6 mg/kg |
| COc1ccc(C2CNC(=O)C2)cc1OCC(C)C (stereo not drawn) [Compound 6, 4-(3-Isobutoxy-4-nmethoxypheny1)-2-pyrrolidone] | 1.1 mg/kg |
| CCCCOc1ccc(CC(=O)NO)cc1 [Compound 1, Bufexamac] | 15 mg/kg |
